Measurements from paper PMC8396041, “A Michael Acceptor Analogue, SKSI-0412, Down-Regulates Inflammation and Proliferation Factors through Suppressing Signal Transducer and Activator of Transcription 3 Signaling in IL-17A-Induced Human Keratinocyte” (International Journal of Molecular Sciences, 2021).

Target: T1, STAT3 (Homo sapiens, UniProt P40763)
T1 construct: Recombinant human STAT3 protein (Abnova, cat no. H00006774-P01)
Test: intrinsic fluorescence quenching titration (ex […] nm, em […] nm)
Assay type: binding

T1 sequence (P40763 2-770): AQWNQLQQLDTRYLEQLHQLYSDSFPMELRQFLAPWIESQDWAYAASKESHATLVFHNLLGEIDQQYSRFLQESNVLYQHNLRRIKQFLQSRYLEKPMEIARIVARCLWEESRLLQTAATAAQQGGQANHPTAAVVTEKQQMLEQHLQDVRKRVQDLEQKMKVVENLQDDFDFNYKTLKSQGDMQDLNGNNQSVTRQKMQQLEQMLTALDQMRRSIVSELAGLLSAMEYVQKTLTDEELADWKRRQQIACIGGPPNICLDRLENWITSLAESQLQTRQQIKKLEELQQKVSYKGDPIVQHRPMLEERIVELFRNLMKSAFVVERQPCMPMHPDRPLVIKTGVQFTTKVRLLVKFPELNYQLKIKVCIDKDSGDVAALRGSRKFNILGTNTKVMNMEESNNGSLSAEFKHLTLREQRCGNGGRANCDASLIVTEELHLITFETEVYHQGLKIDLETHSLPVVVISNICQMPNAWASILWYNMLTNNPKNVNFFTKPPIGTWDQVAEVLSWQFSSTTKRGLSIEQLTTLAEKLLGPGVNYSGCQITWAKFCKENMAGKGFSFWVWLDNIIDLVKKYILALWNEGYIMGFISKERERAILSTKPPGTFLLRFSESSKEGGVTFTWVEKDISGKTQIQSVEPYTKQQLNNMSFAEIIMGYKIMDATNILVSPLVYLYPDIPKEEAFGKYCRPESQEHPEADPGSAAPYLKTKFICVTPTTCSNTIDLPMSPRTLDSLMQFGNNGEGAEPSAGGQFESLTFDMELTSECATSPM

With C=C(C(=O)c1ccc2c(c1)C=CC(C)(C)O2)c1ccc(OC)c(OC)c1 [compound 4, 2-(3,4-Dimethoxyphenyl)-1-(2,2-Dimethyl-2H-Chromen-6-yl)Prop-2-en-1-One] the Kd was 26.8 µM.
